Measurements as given in article PMC11984924, “Dipeptidic Phosphonates: Potent Inhibitors of Pseudomonas aeruginosa Elastase B Showing Efficacy in a Murine Keratitis Model” (Advanced Science, 2025).
Like-named read-outs stand apart in the source and are kept apart here.

Columns and labels:
LasB = target: T1, LasB (Pseudomonas aeruginosa, UniProt Q02RJ6); assay: In vitro LasB inhibition assay; assay type: biochemical
T1 construct: made in house
Method: (§1) 3.1 In vitro inhibition assays
LasB was expressed and purified as described previously.[3] In vitro inhibition assays (LasB,
MMPs, TACE). All in vitro inhibition assays were performed as described previously.[10] […]
Fluorescence signals were measured using a CLARIOstar plate reader (BMG
Labtech, Ortenberg, Germany). […]

HepG2 cells = assay: Cytotoxicity HepG2; assay type: cell-based; conditions: Homo sapiens, HepG2, read-out: HepG2 % inhibition at 100 µM (metabolic activity), 48 hours
Method: (§2) HepG2 (human hepatocellular carcinoma), HEK293 (human embryonal kidney) and A549
(§3) (human lung carcinoma) cells (2x10^5 cells per well) were seeded in 24-well in flat-bottomed
(§4) plates. Culturing of cells, incubations and OD measurements were performed as described
(§5) previously with small modifications.[14] Twenty-four hours after seeding the cells the incubation
(§6) was started by the addition of compounds in a final DMSO concentration of 1%. The living cell
(§7) mass was determined after 48 hours in a PHERAstar microplate reader (BMG labtech,
(§8) Ortenberg, Germany). Two independent measurements were performed for each compound.

MMP-2 = target: T2, MMP-2 (Homo sapiens, UniProt P08253); assay: MMP-2 inhibition (off-target); assay type: biochemical; conditions: read-out: MMP-2 % inhibition at 100 µM
T2 construct: purchased AnaSpec (Fremont, CA, USA)
T2 sequence (P08253 110-660): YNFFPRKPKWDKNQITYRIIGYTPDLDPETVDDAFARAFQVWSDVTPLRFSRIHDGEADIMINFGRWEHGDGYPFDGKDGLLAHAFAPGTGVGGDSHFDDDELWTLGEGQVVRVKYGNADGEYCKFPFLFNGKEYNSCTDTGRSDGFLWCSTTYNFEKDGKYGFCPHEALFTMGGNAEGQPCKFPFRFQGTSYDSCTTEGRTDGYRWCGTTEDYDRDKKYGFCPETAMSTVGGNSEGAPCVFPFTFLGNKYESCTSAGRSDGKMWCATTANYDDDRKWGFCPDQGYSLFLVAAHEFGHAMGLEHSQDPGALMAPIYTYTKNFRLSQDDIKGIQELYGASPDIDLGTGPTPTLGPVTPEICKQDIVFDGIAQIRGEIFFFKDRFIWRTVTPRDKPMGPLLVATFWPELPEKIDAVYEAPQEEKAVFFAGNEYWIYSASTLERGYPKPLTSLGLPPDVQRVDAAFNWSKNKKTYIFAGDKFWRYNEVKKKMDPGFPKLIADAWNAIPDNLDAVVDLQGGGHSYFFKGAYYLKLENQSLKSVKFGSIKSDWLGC
Method: 3.1 In vitro inhibition assays […]
(§9) MMPs, TACE). All in vitro inhibition assays were performed as described previously.[10] TACE inhibitor screening kits were purchased from Sigma-Aldrich (Saint Louis, MO). MMPs along with the SensoLyte 520 Generic MMP Activity Kit Fluorimetric were purchased from AnaSpec (Fremont, CA, USA). The assays were performed according to the guidelines of the respective manufacturer. Fluorescence signals were measured using a CLARIOstar plate reader (BMG Labtech, Ortenberg, Germany). […]
(§10) 3.8 Test against zinc metalloproteases MMP1–3 and TACE (ADAM17), and testing of
as §9, with “We selected a panel of human off -targets, including three human matrix metalloproteases (MMP-1, -2 and -3) and TACE (ADAM-17). These” for “MMPs, TACE). All in vitro inhibition”, “previously.[3] The” for “previously.[10]”, “kit was” for “kits were”, “Sigma -Aldrich” for “Sigma-Aldrich”
(§11) Table S6: Percent (%) inhibition of three MMPs (1 –3) and TACE (ADAM17) in presence of selected LasB inhibitors at 100 µM. Results are means and SD of at least two independent experiments. […]
(§12) Compound [% inhibition at [% inhibition at [% inhibition at [% inhibition at 100

MMP-3 = target: T3, MMP-3 (Homo sapiens, UniProt P08254); assay: MMP-3 inhibition (off-target); assay type: biochemical; conditions: read-out: MMP-3 % inhibition at 100 µM
T3 construct: purchased AnaSpec (Fremont, CA, USA)
Method: as §1
as §9, with “LasB was expressed and purified as described previously.[3] In vitro inhibition assays (LasB, MMPs,” for “MMPs,”
as §10
as §9, with “We selected a panel of human off -targets, including three human matrix metalloproteases (MMP-1, -2 and -3) and TACE (ADAM-17). These” for “MMPs, TACE). All in vitro inhibition”, “previously.[3] The” for “previously.[10]”, “kit was” for “kits were”, “Sigma -Aldrich” for “Sigma-Aldrich”
as §11, §12

TACE (ADAM17) = target: T4, TACE (ADAM17) (Homo sapiens, UniProt P78536); assay: TACE (ADAM17) inhibition (off-target); assay type: biochemical; conditions: read-out: TACE (ADAM17) % inhibition at 100 µM
T4 construct: purchased Sigma-Aldrich (Saint Louis, MO)
Method: as §1
as §9, with “LasB was expressed and purified as described previously.[3] In vitro inhibition assays (LasB, MMPs,” for “MMPs,”
as §10
as §9, with “We selected a panel of human off -targets, including three human matrix metalloproteases (MMP-1, -2 and -3) and TACE (ADAM-17). These” for “MMPs, TACE). All in vitro inhibition”, “previously.[3] The” for “previously.[10]”, “kit was” for “kits were”, “Sigma -Aldrich” for “Sigma-Aldrich”
as §11, §12

[1] = system: Pseudomonas aeruginosa strain PA14; assay: Antibacterial effect on P. aeruginosa PA14 growth; assay type: cell-based; conditions: PA14, read-out: P. aeruginosa PA14 % inhibition of growth at 100 µM, 18 h, 37 °C
Method: Table S14: Food consumption after treatment with (R)-30.
Table S15: Body and organ weights (gram) after treatment with (R)-30.
3.12 Antibacterial effects
As start OD600 of Pseudomonas aeruginosa strain PA14 we used 0.03 in a total volume of 200
µL in lysogeny broth containing the compounds predissolved in DMSO (max. 1%). Final
compound concentrations prepared from serial dilutions ranged from 3.125 to 100 µM (double
values for each concentration). The ODs were determined after addition of the compounds and
again after incubation for 18 h at 37 °C and 200 rpm in 96 well plates (Sarstedt, Nümbrecht,
Germany) using a FLUOStar Omega (BMG labtech, Ortenberg, Germany). Given percent (%)
inhibition values are means of at least two independent determinations. To obtain the values
for a given compound, their ODs were compared to those of DMSO controls. Concerning the […]

A549 cells = assay: Cytotoxicity A549; assay type: cell-based; conditions: Homo sapiens, A549, read-out: A549 % inhibition at 100 µM (metabolic activity), 48 hours
Method: as §2, §3, §4, §5, §6, §7, §8

HEK293 cells = assay: Cytotoxicity HEK293; assay type: cell-based; conditions: Homo sapiens, HEK293, read-out: HEK293 % inhibition at 100 µM (metabolic activity), 48 hours
Method: as §2, §3, §4, §5, §6, §7, §8

MMP-1 = target: T5, MMP-1 (Homo sapiens, UniProt P03956); assay: MMP-1 inhibition (off-target); assay type: biochemical; conditions: read-out: MMP-1 % inhibition at 100 µM
T5 construct: purchased AnaSpec (Fremont, CA, USA)
T5 sequence (P03956 100-469): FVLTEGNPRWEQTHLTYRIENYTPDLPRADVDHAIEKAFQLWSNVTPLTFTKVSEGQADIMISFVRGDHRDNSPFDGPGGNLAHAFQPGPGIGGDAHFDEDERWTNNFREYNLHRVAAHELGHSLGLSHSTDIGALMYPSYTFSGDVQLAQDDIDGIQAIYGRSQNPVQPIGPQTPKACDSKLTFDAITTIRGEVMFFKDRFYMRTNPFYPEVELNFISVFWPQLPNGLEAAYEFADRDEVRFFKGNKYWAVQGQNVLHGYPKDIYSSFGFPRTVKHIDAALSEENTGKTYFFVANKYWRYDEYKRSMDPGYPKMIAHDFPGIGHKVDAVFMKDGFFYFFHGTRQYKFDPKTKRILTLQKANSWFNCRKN
Method: as §1
as §9, with “LasB was expressed and purified as described previously.[3] In vitro inhibition assays (LasB, MMPs,” for “MMPs,”
as §10
as §9, with “We selected a panel of human off -targets, including three human matrix metalloproteases (MMP-1, -2 and -3) and TACE (ADAM-17). These” for “MMPs, TACE). All in vitro inhibition”, “previously.[3] The” for “previously.[10]”, “kit was” for “kits were”, “Sigma -Aldrich” for “Sigma-Aldrich”
as §11, §12

T1 sequence (Q02RJ6 198-498): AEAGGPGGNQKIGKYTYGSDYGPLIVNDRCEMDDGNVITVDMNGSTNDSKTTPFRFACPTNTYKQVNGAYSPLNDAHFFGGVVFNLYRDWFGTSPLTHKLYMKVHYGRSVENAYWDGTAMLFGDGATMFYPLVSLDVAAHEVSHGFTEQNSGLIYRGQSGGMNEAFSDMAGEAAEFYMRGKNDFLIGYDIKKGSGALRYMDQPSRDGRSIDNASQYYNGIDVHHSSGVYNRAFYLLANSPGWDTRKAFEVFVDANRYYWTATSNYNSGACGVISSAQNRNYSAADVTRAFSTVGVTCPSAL
T4 sequence (P78536 215-824): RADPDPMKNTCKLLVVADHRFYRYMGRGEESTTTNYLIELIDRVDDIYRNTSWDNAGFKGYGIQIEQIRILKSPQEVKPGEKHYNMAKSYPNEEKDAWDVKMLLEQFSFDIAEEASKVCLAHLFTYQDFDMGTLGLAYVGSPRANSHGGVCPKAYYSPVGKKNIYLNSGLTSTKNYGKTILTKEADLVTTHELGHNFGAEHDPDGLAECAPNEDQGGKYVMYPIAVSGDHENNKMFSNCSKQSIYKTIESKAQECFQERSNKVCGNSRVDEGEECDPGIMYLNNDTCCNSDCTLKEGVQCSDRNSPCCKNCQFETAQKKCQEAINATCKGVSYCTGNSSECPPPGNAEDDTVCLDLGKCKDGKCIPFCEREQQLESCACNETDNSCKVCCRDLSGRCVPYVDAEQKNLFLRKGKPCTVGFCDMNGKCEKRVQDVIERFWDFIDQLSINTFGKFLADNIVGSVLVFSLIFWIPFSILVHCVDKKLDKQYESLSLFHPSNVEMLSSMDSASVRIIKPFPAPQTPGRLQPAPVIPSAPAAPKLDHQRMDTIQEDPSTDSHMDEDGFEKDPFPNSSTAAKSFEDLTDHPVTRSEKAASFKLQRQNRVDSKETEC
T3 sequence (P08254 100-477): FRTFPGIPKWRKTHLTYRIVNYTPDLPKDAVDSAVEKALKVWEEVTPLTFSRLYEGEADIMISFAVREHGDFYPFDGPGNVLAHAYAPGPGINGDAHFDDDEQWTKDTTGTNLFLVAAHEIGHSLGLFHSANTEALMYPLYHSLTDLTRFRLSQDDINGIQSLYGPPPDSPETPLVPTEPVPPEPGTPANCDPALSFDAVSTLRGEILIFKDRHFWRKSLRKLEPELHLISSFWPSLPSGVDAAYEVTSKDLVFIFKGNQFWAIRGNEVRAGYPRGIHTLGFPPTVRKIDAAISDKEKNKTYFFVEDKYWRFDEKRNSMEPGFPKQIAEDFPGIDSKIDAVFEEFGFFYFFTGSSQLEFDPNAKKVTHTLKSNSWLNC

COC[C@H](NC(=O)[C@@H](CC(C)C)P(=O)(O)O)C(=O)Nc1ccc(Cl)c(Cl)c1 [(R)‐18]
IC50 (LasB; IC50 LasB inhibition): 86.7 ± 3.6 nM

CC(C)CC(C(=O)Nc1ccc(C(F)(F)F)cc1)P(=O)(O)O (stereo not shown) [compound 5, reference compound]
fold enhancement in IC50 compared to the original hit (LasB; compared to thiol-based hit 4): 18 fold

CC(C)CC(C(=O)N[C@@H](CC1CC1)C(=O)Nc1ccc(Cl)c(Cl)c1)P(=O)(O)O (stereo partly shown) [compound 16]
IC50 (LasB; read-out: IC50 LasB inhibition): 27.1 ± 0.9 nM

CC(C)C[C@H](C(=O)N[C@@H](Cc1cccnc1)C(=O)Nc1ccc(Cl)c(Cl)c1)P(=O)(O)O [(R)‐25]
IC50 (LasB; read-out: IC50 LasB inhibition): 574 ± 16 nM

CC(C)CC(C(=O)N[C@H](C(=O)Nc1ccc(Cl)cc1)C(C)C)P(=O)(O)O (stereo partly shown) [compound 27]
IC50 (LasB; IC50 LasB inhibition): 9 ± 0.4 nM

CC(C)CC(C(=O)N[C@@H](C(=O)Nc1ccc(Cl)c(Cl)c1)C(C)C)P(=O)(O)O (stereo partly shown) [compound 10]
IC50 (LasB; IC50 LasB inhibition): 11.3 ± 0.4 nM

CC(C)CC(C(=O)N[C@H](C(=O)Nc1ccc(Cl)c(Cl)c1)C1CC1)P(=O)(O)O (stereo partly shown) [compound 12]
IC50 (LasB; IC50 LasB inhibition): 28.8 ± 0.8 nM

CC(C)C[C@@H](C(=O)N[C@H](C(=O)Nc1ccc(-n2ccnc2)cc1)C(C)C)P(=O)(O)O [(S)‐36]
IC50 (LasB; IC50 LasB inhibition): 417 ± 14 nM

COC[C@H](NC(=O)[C@H](CC(C)C)P(=O)(O)O)C(=O)Nc1ccc(Cl)c(Cl)c1 [(S)‐18]
IC50 (LasB; IC50 LasB inhibition): 197 ± 5.4 nM

CC(C)CC(C(=O)N[C@H](C(=O)Nc1ccc(N2CCOCC2)cc1)C(C)C)P(=O)(O)O (stereo partly shown) [compound 37]
IC50 (LasB; IC50 LasB inhibition): 83.7 ± 2.1 nM | fold decrease in activity compared to 9 (LasB; compared to 9): 16 fold

CC(C)CC(C(=O)N[C@H](C(=O)Nc1ccc(Cl)c(Cl)c1)c1ccccc1)P(=O)(O)O (stereo partly shown) [compound 22]
IC50 (LasB; read-out: IC50 LasB inhibition): 99.6 ± 2.5 nM

CC(C)CC(C(=O)N[C@H](C(=O)Nc1ccc(C(=O)C(F)(F)F)cc1)C(C)C)P(=O)(O)O (stereo partly shown) [compound 31]
inhibition at 100 µM (HepG2 cells): < 10% | inhibition at 100 µM (MMP-2): < 10% | inhibition at 100 µM (MMP-3): < 10% | inhibition at 100 µM (TACE (ADAM17)): < 10% | IC50 (LasB; IC50 LasB inhibition): 21.7 ± 0.6 nM | inhibition at 100 µM [1]: < 10% | inhibition at 100 µM (A549 cells): < 10% | inhibition at 100 µM (HEK293 cells): 19 ± 5% | inhibition at 100 µM (MMP-1): < 10%

CC(C)CC(C(=O)N[C@H](C(=O)Nc1ccc(Oc2ccccc2)cc1)C(C)C)P(=O)(O)O (stereo partly shown) [compound 35]
IC50 (LasB; IC50 LasB inhibition): 8 ± 0.3 nM
